# Measured values: PMC10784468 (Nature Communications, 2024)
# Positions of bridges follow the written chain, without caps; N, C: chain ends. No end group written: not given here. FeTCPP = ferriporphyrin at the N-terminus; CAA = cis-aconitic anhydride moiety
# T1: GPX4 (Homo sapiens, UniProt P36969)
# T1 sequence (P36969 1-197): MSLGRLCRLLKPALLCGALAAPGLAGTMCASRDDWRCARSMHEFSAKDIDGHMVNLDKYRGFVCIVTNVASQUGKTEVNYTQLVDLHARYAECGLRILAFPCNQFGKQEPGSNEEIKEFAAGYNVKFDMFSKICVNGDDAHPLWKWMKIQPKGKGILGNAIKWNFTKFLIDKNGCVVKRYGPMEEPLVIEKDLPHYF
# T2: Gi-F-CAA (synthetic construct, disulfide 9-17 (inferred))
# T2 chain: FeTCPP-LKLKLK(CAA)GACNWLPLYPCPV
# T3: Gi-F nanoparticle (synthetic construct, disulfide 9-17 (inferred); also: self-assembled nanoparticle)
# T3 chain: FeTCPP-LKLKLKGACNWLPLYPCPV
# T4: NGi-F-CAA (synthetic construct, cysteine pairing not given here; also: cis-aconitic anhydride on Lys)
# T4 chain: FeTCPP-LKLKLK(CAA)GACLNWPYLPCPV
# What was measured:
# [1] = tested on: 786-O xenograft tumors; assay: In vivo antitumor evaluation in large tumor model (786-O); design: species or system BALB/c nude mice; details: six i.v. injections at 2-days intervals, Gi-F-CAA 8 mg/kg, Bevacizumab 5 mg/kg
# [2] = tested on: MCF-7/MDR xenograft tumors; assay: In vivo antitumor evaluation in MCF-7/MDR xenografted model; details: for mean tumor volume at 20 days post injection / TGI rate: MCF-7/MDR xenograft, Gi-F-CAA 8 mg/kg, DOX and CPT 3 mg/kg; for mean tumor volume at 20 days post injection: six i.v. injections every 2 days, n = 6; for TGI rate: six i.v. injections, 20 days
# Description: Female BALB/c nude mice (~8 weeks, 18 g) were subcutaneously inoculated with 5 × 10^6 MCF-7/MDR cells resuspended in Matrigel. […] Individual tumor volume and bodyweight of mouse after different treatment was collected at 2-days intervals for analysis. Mice were killed at 20 days post treatment unless endpoints were exceeded. Moreover, tumors from all groups were harvested under euthanasia and weighed for analysis at the end of treatment.
# [3] = target: GPX4mu; details: one-to-one binding; ref Biochemical and Biophysical Research Communications. 2017, 482, 195e201; cited from earlier work
# Protocol: page 12: Figure 9. […] The manuscript was revised accordingly. […] More explanation on this may be helpful. For instance, why small molecule inhibitors of GPX4 were not used? I suppose small molecules may penetrate tumor better since they are smaller. Beside ... || page 14: calculation of apparent Kd was added in the method section. Specifically, nanoparticles provide large surface area with exposed GPX4 target to achieve multivalent binding, which could remarkably enhance the binding affinity. This concept has been proven by several papers (Adv. Mater. 2023,35, 2211332; Adv Mater, 2023, doi: 10.1002/adma.202303831). […] Biophys. Res.
# [4] = tested on: GPX4; details: ref Biochemical and Biophysical Research Communications. 2017, 482, 195e201, cited from earlier work; for GPX4 inhibitory effect at 100 μM: even at 100 μM
# Description: page 12: Figure 9. […] The manuscript was revised accordingly. […] More explanation on this may be helpful. For instance, why small molecule inhibitors of GPX4 were not used? I suppose small molecules may penetrate tumor better since they are smaller. Beside ...
# [5] = tested on: EJ cells; assay: Intracellular GSH content detection; assay type: cell-based
# Protocol: (§1) Initially, EJ cells (5 × 10^5) were cultured in 6-well plate with a CO2 incubator overnight at 37 °C. […] Next, EJ cells were collected and washed with PBS for 3 times. Afterwards, the cell lysates were collected by centrifugation at 8000 g for 10 min at 4 °C after lysed by freeze-thaw treatment. Finally, the GSH contents were measured with a GSH Assay Kit based on the manufacturer’s instructions.
# [6] = tested on: EJ cells; assay: Intracellular LPO content (MDA kit); assay type: cell-based
# Protocol: as §1, with “the LPO” for “the GSH”, “measured by thiobarbituric acid (TBA) reaction” for “measured”, “a Malondialdehyde (MDA)” for “a GSH”
# [7] = tested on: EJ cells; assay: Intracellular Fe2+ ions detection; assay type: cell-based
# Protocol: Initially, EJ cells (5 × 10^5) were cultured in confocal dish with a CO2 incubator overnight at 37 °C. […] Afterwards, EJ cells were washed with PBS for 3 times and replaced with culture mediums.
# [8] = tested on: EJ cells; assay: Cytotoxicity assay (CCK-8) on EJ cells
# Protocol: Initially, EJ cells were seeded into 96 well plates at a density of 5 × 10^3 per well and incubated in a CO2 incubator overnight at 37 °C. Subsequently, Gi-F (pH = 7.4), Gi-F-SA (pH = 7.4), NGi-F-CAA (pH = 7.4), NGi-F-CAA (pH = 6.5), Gi-F-CAA (pH = 7.4) and Gi-F-CAA (pH = 6.5) at different concentrations (1, 2, 4, 8, 16, 32, 64, 128 and 256 μM) was added to the cells and further incubated for 48 h. Finally, the cell viability rate was calculated by (Sample wells-Blank wells)/(Control wells-Blank wells) × 100%.
# [9] = ζ-potential in PBS; assay type: physicochemical; details: 40 μM in PBS, pH 7.4; mean of n = 3
# Protocol: Supplementary Fig. 12. ζ-potential change of Gi-F-CAA (40 μM) in PBS (0.01 M, pH 7.4 or 6.5) (n=3
# experimental repeats). Experiment was independently repeated three times with similar results. Values are
# (1 picture or pasted object on this page, not shown here)
# Supplementary Fig. 13. ζ-potential of NGi-F-CAA, Gi-F and Gi-F-SA (pH 7.4) (40 μM) in PBS (n=3
# [10] = target: T1, GPX4; assay: Intracellular GPX4 activity detection; assay type: cell-based; design: endogenous in cells; host or cells: EJ bladder cancer cells
# Protocol: as §1, with “5000 rpm” for “8000 g”, “ultrasonic lysis in an ice bath.” for “lysed by freeze-thaw treatment.”, “GPX4 activity” for “GSH contents”, “GPX” for “GSH”
# [11] = target: T2, Gi-F-CAA; assay: MST
# [12] = target: T3, Gi-F nanoparticle; assay: MST
# [13] = target: T4, NGi-F-CAA; assay: MST
molecule,measurement,setting,value
Bevacizumab: clinical antitumor drug Avastin (Bevacizumab) [reference compound],tumor volume course in large tumors (~500 mm^3),[1],temporary retarded growth and got out of control thereafter
COc1cccc2c1C(=O)c1c(O)c3c(c(O)c1C2=O)C[C@@](O)(C(=O)CO)C[C@@H]3O[C@H]1C[C@H](N)[C@H](O)[C@H](C)O1 [DOX],mean tumor volume at 20 days post injection,[2],1082 mm^3
same,TGI rate,[2],32%
same,Tumor weight,[2]; mice 1,0.73 g
same,Tumor weight,[2]; mice 2,1.18 g
same,Tumor weight,[2]; mice 4,0.93 g
same,Tumor weight,[2]; mice 6,0.69 g
CRVDLQGWRRCRR [GXpep-1],Kd,[3],1.8 µM
same,GPX4 inhibitory effect at 100 μM,[4],did not have an inhibitory effect
FeTCPP-LKLKLK(CAA)GACLNWPYLPCPV (disulfide) [NGi-F-CAA],Relative GSH levels,"[5]; pH=7.4, replicate #1",0.912
same,Relative GSH levels,"[5]; pH=7.4, replicate #2",0.883
same,Relative GSH levels,"[5]; pH=7.4, replicate #3",1.029
same,Relative MDA levels,"[6]; pH=7.4, replicate #1",0.76
same,Relative MDA levels,"[6]; pH=7.4, replicate #2",1.04
same,Relative MDA levels,"[6]; pH=7.4, replicate #3",1.44
same,"intracellular Fe^2+ (FerroOrange fluorescence), pH 7.4","[7]; EJ cells, pH 7.4, 8 h",no remarkable fluorescence
same,Concentrations of Fe2+ ions,"[7]; pH=7.4, replicate #1",17.875 ng/104cells
same,Concentrations of Fe2+ ions,"[7]; pH=7.4, replicate #2",15.309 ng/104cells
same,Concentrations of Fe2+ ions,"[7]; pH=7.4, replicate #3",13.004 ng/104cells
same,IC50,[8]; pH 6.5,111 µM
same,IC50,[8]; pH 7.4,155 µM
same,Zeta potential (mV),[9],-26.8 mV
same,Relative activity of GPX4,"[10]; EJ cells, 8 h, pH 7.4, PBS group normalized as 1, #1",0.95
same,Relative activity of GPX4,"[10]; EJ cells, 8 h, pH 7.4, PBS group normalized as 1, #2",0.9
same,Relative activity of GPX4,"[10]; EJ cells, 8 h, pH 7.4, PBS group normalized as 1, #3",1.02
same,Relative activity of GPX4,"[10]; pH=7.4, replicate #1",0.94
same,Relative activity of GPX4,"[10]; pH=7.4, replicate #2",0.94
same,Relative activity of GPX4,"[10]; pH=7.4, replicate #3",1
CC[C@@]1(O)C(=O)OCc2c1cc1n(c2=O)Cc2cc3ccccc3nc2-1 [CPT],mean tumor volume at 20 days post injection,[2],1095 mm^3
same,TGI rate,[2],39%
same,Tumor weight,[2]; mice 1,0.95 g
same,Tumor weight,[2]; mice 2,0.87 g
same,Tumor weight,[2]; mice 3,1 g
same,Tumor weight,[2]; mice 4,0.65 g
same,Tumor weight,[2]; mice 5,0.9 g
same,Tumor weight,[2]; mice 6,0.74 g
GACNWLPLYPCPV (disulfide 3-11 (inferred)) [GXpep-3],Kd,[3],8.2 µM
same,IC50,"[4]; read-out: IC50, GPX4 inhibitory activity",10 µM
CRAWYQNYCALRR [GXpep-2],Kd,[3],0.61 µM
same,GPX4 inhibitory effect at 100 μM,[4],did not have an inhibitory effect
GPX4 (protein) SLGRLCRLLKPALLCGALAAPGLAGTMCASRDDWRCARSMHEFSAKDIDGHMVNLDKYRGFVCIVTNVASQUGKTEVNYTQLVDLHARYAECGLRILAFPCNQFGKQEPGSNEEIKEFAAGYNVKFDMFSKICVNGDDAHPLWKWMKIQPKGKGILGNAIKWNFTKFLIDKNGCVVKRYGPMEEPLVIEKDLPHYF,Kd,[11],~1.68 µM
same,Kd,[12],~0.0303 µM
same,Kd,[13],~17.6 µM
